Test results: patent publication US8362072B2, “BRCA1-based breast or ovarian cancer treatment agents and methods of use” (University of Kansas, priority 2007, dated 2013)

System: human BRCA1 promoter
Test: BRCA1-luciferase reporter assay (Steady-Glo) in stably transfected MCF7 cells
Type: cell-based
Settings: for EC50 / EC90: MCF7-BRCA1-luciferase cells, dilution series; for BRCA1-luciferase activity (in words): MCF7 pGL4.14-hBRCA1.3 cells
Method: Hygromycin selected MCF7 cells were seeded in 384-well tissue culture plates. The first two columns of each plate were empty so as to include established positive and negative controls. Each of the remaining 352 wells contained a compound to be screened. MCF7 cells were incubated with the compounds for 48 hours. Luciferase activity was measured using the Steady Glo Luciferase Assay System (Promega). Briefly, 5×10^6 MCF7 cells were transfected with […] of purified pGL4.14 containing the human BRCA1 promoter (pGL4.14-hBRCA) with Effectene as per manufacturers protocol (Qiagen). Stable transfectants were selected with […] Hygromicin B. 1×10^5 or 2×10^5 stable transfectants were tested for luciferase activity with the Steady-Glo Luciferase Assay System (Promega).
Hygromycin selected MCF-7 cells (e.g., MCF7 clone pGL4.14-hBRCA1.3) stably transfected with the human BRCA1-luciferase reporter construct (e.g., pGL4.14-hBRCA1.3) were seeded in 384-well white tissue culture plates (Becton Dickenson, San Diego, Calif.) at 1×10^4 cells/well. These cells were then stimulated with indicated concentrations of genistein (Sigma-Aldrich, St. Louis, Mo.) for 0, 6, 9, 24 and 48 hours. Luciferase activity was measured using the Steady Glo Luciferase Assay System (Promega). The data shown in FIG. 3A is representative of 3 individual experiments.
Two different chemical libraries were screened for the ability to enhance BRCA1 gene expression. To examine the effects of each compound on BRCA1 expression, the human BRCA1 promoter was cloned and inserted upstream of the firefly luciferase gene in the plasmid pGL4.14 (BRCA1-Luc) (Promega), as described above. The ER positive human breast cancer cell line, MCF7, was transfected and stable transfectants were selected with hygromycin.
Briefly, compounds were plated in a 384 well plate in a total volume of 20 μl. A ten point dilution series was used at concentrations—100 µM, 10 μM, 1 μM, 100 nM, 10 nM, 1 nM, 0.1 nM, 0.01 nM, 0.0001 nM, 0 (DMSO vehicle only). A second dilution series of 100 μM, 32.5 μM, […], 3.6 μM, 1.2 μM, 400 nM, 132.2 nM, 45 nM, 14.8 nM, 5 nM, and 1.65 nM was also used. MCF7-BRCA1-luciferase cells were added to the compounds at a concentration of 1×10^4 cells/well in a volume of 25 μl. The 384 well plates, containing the compounds+cells, were then incubated at 37° C. for 48 hours. After 48 hours, luciferase activity was measured with the Steady-Glo® Luciferase Assay System (Promega, Madison, Wis.).

Row | Compound | EC50 (Homo sapiens, MCF7, 48 h) | EC90 (Homo sapiens, 48 hours) | EC50 (48 hours) | BRCA1-luciferase activity (in words) (48 hours)
1 | Cc1ccc(-c2nc3ccc(NCc4cccs4)cc3o2)cc1 [Cmpd 26] | – | 366 µM | 28.7 µM | –
2 | O=C(CSc1nc(=O)cc(O)[nH]1)c1ccccc1 [Cmpd 7] | 2060 µM | ~63700 µM | – | –
3 | Clc1cccc(CNc2ccc3[nH]c(-c4ccco4)nc3c2)c1 [JN1-82] | 2.05 µM | 4.94 µM | – | rank with the other top compounds and genistein
4 | Fc1cccc(/C=N/c2ccc3[nH]c(-c4ccco4)nc3c2)c1 [JN1-78] | 17.4 µM | 49.4 µM | – | –
5 | O=C(Nc1ccc(Cl)c(Cl)c1)c1ccccc1Br [Cmpd 9] | 1.3 µM | 10.1 µM | – | comparatively superior, but similar to Compound 8 and 10
6 | Cc1[nH]n(-c2ccc([N+](=O)[O-])cc2)c(=O)c1/C=N/C1CCCC1 [Cmpd 18] | 11.2 µM | 17.2 µM | – | –
7 | Cc1cc(C(=O)Nc2ccc(N3CCOCC3)cc2)ccc1[N+](=O)[O-] [Cmpd 3] | 8.73 µM | 47.3 µM | – | comparatively superior
8 | Fc1cccc(CNc2ccc3[nH]c(-c4ccco4)nc3c2)c1 [JN1-76] | 2.42 µM | 5.94 µM | – | rank with the other top compounds and genistein
9 | CC(C)c1ccc(OCC(=O)O/N=C(\N)c2ccncc2)c(Br)c1 [Cmpd 14] | 106 µM | 998 µM | – | comparatively superior to Compound 13
10 | c1ccc(CNc2ccc3[nH]c(-c4ccco4)nc3c2)cc1 [JN1-68] | 3.53 µM | 8.84 µM | – | rank with the other top compounds and genistein
11 | NNC(=O)c1nc(-c2ccccc2)cc(-c2ccccc2)n1 [Cmpd 27] | – | 0.00186 µM | – | –
12 | Cc1cccc(-c2noc(-c3cccs3)n2)c1 [Cmpd 10] | 0.218 µM | 2.56 µM | – | –
13 | Fc1ccc(-c2nnc(-c3ccc(F)cc3)o2)cc1 [Cmpd 6] | 1.64 µM | 24.2 µM | – | –
14 | Clc1cccc(/C=N/c2ccc3[nH]c(-c4ccco4)nc3c2)c1 [JN1-77] | 34.9 µM | 196 µM | – | –

More lines, main results first:

Row | EC50 (Homo sapiens, MCF7, 48 h) | EC90 (Homo sapiens, 48 hours) | EC50 (48 hours) | Compound | BRCA1-luciferase activity (in words) (48 hours)
15 | 11.6 µM | ~13.8 µM | – | Fc1ccc(Nc2nc(-c3ccccc3)cs2)cc1 [Cmpd 5] | –
16 | 11 µM | 20.7 µM | – | COc1ccc(/C(O)=C\C=N\c2ccccc2OC)cc1 [Cmpd 22] | –
17 | 50.3 µM | 170 µM | – | N/C(=N\OC(=O)c1ccoc1)c1ccc(Br)cc1 [Cmpd 20] | –
18 | 20.6 µM | 79.4 µM | – | CC(=O)c1cc(C#N)c(SC/C=C/c2ccccc2)nc1C [Cmpd 19] | –
19 | 0.729 µM | 1.77 µM | – | COc1ccc(-c2nc3cc(C)ccc3o2)cc1N [Cmpd 4] | –
20 | 0.948 µM | 2.85 µM | – | Cc1ccc(C(=O)Nc2ccc3c(c2)oc2ccccc23)o1 [Cmpd 17] | –
21 | 4.88 µM | 71.5 µM | – | CC(=O)c1ccc(/N=C/c2ccc(OCc3ccc(F)cc3)cc2)cc1 [Cmpd 31] | –
22 | 6.77 µM | 80.5 µM | – | O/N=C(\CSc1nc2ccccc2[nH]1)c1ccccc1 [Cmpd 11] | comparatively superior to Compound 13
23 | 1.67 µM | 15.8 µM | – | Cn1nnc(-c2ccc(OCc3ccccc3F)cc2)n1 [Cmpd 12] | comparatively superior to Compound 13
24 | 69.6 µM | 377 µM | – | COc1ccccc1OCC(=O)O/N=C(\N)c1ccccn1 [Cmpd 13] | –
25 | 11.2 µM | ~9.72 µM | – | Cc1ccc(/C(O)=C/C=N/c2cccc(Cl)c2C)cc1 [Cmpd 21] | –
26 | 9.43 µM | 46.8 µM | – | COc1ccc2c(c1OC)C(=O)N(c1ccc(C)cc1)C2 [Cmpd 32] | –
27 | 2150 µM | – | – | N/C(=N\OC(=O)Cc1cccs1)c1ccc(Cl)cc1 [Cmpd 8] | –
28 | 6.96 µM | – | – | O=C(Nc1ccc(Br)cn1)c1ccc(Oc2ccccc2)cc1 [Cmpd 28] | –
29 | 10.7 µM | ~11.8 µM | – | COc1ccc(/C=N/c2ccc3[nH]c(-c4ccccc4)nc3c2)cc1OC [Cmpd 23] | –
30 | 25.8 µM | 110 µM | – | Cc1cccc(/C=N/c2ccc3[nH]c(-c4ccco4)nc3c2)c1 [JN1-72] | –
